According to publication PMC11726359, “Discovery of Rezatapopt (PC14586), a First-in-Class, Small-Molecule Reactivator of p53 Y220C Mutant in Development” (ACS Medicinal Chemistry Letters, 2024):
Read-outs that look alike come from different tables or passages of the source.

Experiments:
[1] = biological target: T1, recombinant His-tag Y220C p53 DNA binding domain (Homo sapiens, UniProt P04637, Y220C); experiment: TR-FRET DNA binding assay (SC150); format: biochemical
T1 construct: Y220C p53 DBD protein (amino acids #94-312); made in house
Excerpt: At the outset of our hit generation campaign, several small molecules targeting the p53 Y220C mutant protein were identified. Two notable examples, supported by crystallographic data, were the compounds from the carbazole series[6] (PhiKan83) and the iodophenol series[7] (PK1596) (Figure 1). To assess the in vitro potency of the p53 Y220C reactivators, a time-resolved fluorescence resonance energy transfer (FRET) assay was developed. In this assay, recombinant His-tag Y220C p53 DNA binding domain binds to biotin-labeled consensus DNA, and the FRET signal is measured between the allophycocyanin-conjugated anti-His-tag antibody and europium-conjugated streptavidin. The […] concentration required to increase DNA binding by 1.5-fold (SC150) could then be determined. The carbazole compound (PhiKan83) enhanced DNA binding with an SC150 of 37.2 μM. […]
Time-Resolved Fluorescence Resonance Energy Transfer (TR-FRET) Assay
DNA binding activity was measured by the TR-FRET assay. In this assay, the recombinant His6-tag Y220C p53 DNA binding domain (DBD) protein binds to biotin labeled consensus DNA. The binding of recombinant His6-tag Y220C p53 DBD protein and biotin-labeled consensus DNA is detected by the fluorescence resonance energy transfer (FRET) between allophycocyanin (APC) conjugated anti-His6 tag antibody and Europium-(Eu) conjugated Streptavidin. Test compounds, at 2 mM stock in DMSO, were diluted t hr e e-f ol d in serial dilutions in DMSO and 1.2 µL per well were added into 384-well polypropylene black plates (NUNC). Subsequently, 30 µL per well of 181 nM recombinant His6-tag Y220C p53 DBD protein (amino acids #94-312) and 9.1 nM of APC conjugated anti-His6 tag antibody (Columbia Biosciences) in ice-cold Assay Buffer 1 (50 mM Tris-HCl, pH 7.4, 75 mM KCl, 0.75 mM DTT and 0.2 mg/mL bovine serum albumin [BSA]) was added. As a background control, 30 µL of Assay Buffer 1 containing 9.1 nM of APC anti-His6 antibody (no Y220C protein) was also added into a second set of serial diluted compound plates. The samples were centrifuged at 1,200 rpm (Eppendorf 5810R plate centrifuge) for 1 minute and incubated at room temperature (20 °C) for 15 min. The samples were then incubated at 27 °C in a water bath for 48 min. Afterwards, 5 µL per well of 145 nM biotin labeled oligonucleotide from a consensus DNA p53 response element (a DNA duplex with 5’ to 3’sequence of […]
and biotin attached to the 3’ end of the complementary DNA) and 8.8 nM Eu-conjugated streptavidin (Columbia Biosciences) in Assay Buffer 2 (50 mM Tris-HCl, pH 7.4, 75 mM KCl and 0.2 mg/mL BSA) were added. The samples were centrifuged at 1,200 rpm for 1 min and incubated at room temperature (20 °C) for 20 min. Assay signals were monitored by reading excitation at 340 nm, and emission fluorescence at 615 and 665 nm, on an Envision reader (Perkin El mer). Normalized TR -FRET assay signal (Rn) was calculated by the formula:
Rn = [(A − B a − C × (D − Bd))/(D − Bd)] × (Dc − B d),
C = (Ac − B a)/(Dc − B d), […]

[2] = system: NUGC-3, gastric cancer cell line with a TP53 Y220C mutation; experiment: MTT cell proliferation assay; format: cell-based, human; settings: for IC50: Homo sapiens, NUGC-3, 120 h, NUGC-3 cells, five days incubation
Protocol: We also evaluated the effects of these compounds on the growth and viability of four cancer cell lines in vitro. Two of the cell lines (NUGC-3, gastric cancer cell line with a TP53 Y220C mutation and T3M-4, pancreatic carcinoma cell line) have the TP53 Y220C mutation leading to the p53 Y220C mutant protein; SJSA-1 is a p53 WT cell line, and NUGC-3-KO is an isogenic p53 knockout cell line.[11] After incubating the cells with the compounds for five days, cell viability was measured using the 3-(4,5-dimethylthiazol-2-yl)-2,5-diphenyltetrazolium bromide (MTT) assay.
C = (Ac − B a)/(Dc − B d),
Prism (GraphPad) or XLfit software (IDBS).
Cells were seeded at an appropriate
Compounds were tested at eight concentrations with 2-fold serial dilutions. […]
with a reference wavelength of 650 nm. […]
untreated cells (control). […]

[3] = Caco-2 permeability; format: in vitro ADME; settings: human
Excerpt: Significant efforts were dedicated to the optimization of compound 13, and a successful approach involved fluorine substitution of the piperidine ring. Fluorine substitution often plays a crucial role in medicinal chemistry, exerting a substantial impact on the characteristics of drug molecules.[12],[13] Incorporation of fluorine atoms can yield diverse effects and improvements in a drug’s pharmacological properties. In the case of the piperidine ring in compound 13, several key effects of fluorine substitution were predicted, including enhanced hydrogen bonding with Threonine-150, increased conformational rigidity of the piperidine ring, and reduced basicity. […] We postulated that the fluorine atom on the piperidine ring of compound 22, which preferentially stays in the axial position, can form a better hydrogen bond with the N-H group of Threonine-150. The enhanced cellular potency of compound 22 can be attributed to the enhanced permeability. […] Recently, insights into the conformational behavior of cis-fluorinated piperidines were reported.[14]

[4] = Pharmacokinetic study in mice; settings: 50 mg/kg
Protocol: (§1) Pharmacokinetic parameters were evaluated in female CD-1 mice. Animals received an oral gavage dose of 50 mg/kg of the test article. The test article was formulated in a solution containing 2% hydroxypropyl
(§2) cellulose and 0.5% Tween 80 in water. Blood samples were collected at 0.5, 1, 2, 4, 7, and 24 h post dose.
(§3) Blood samples were processed into plasma, and the concentrations of the test article were determined by
(§4) LC-MS/MS. P harmacokinetic parameters were calculated using the Phoenix WinNonlin 6.3 program,
(§5) employing a non- compartmental model 200.

[5] = Half-life in human liver microsomes; format: in vitro ADME; settings: read-out: half-life (T1/2)
Excerpt: However, there was a significant improvement in potency with fluorine substitution at the hydrophobic anchor (R3 = CF3, compound 7). […] The trifluoromethyl group remained the best anchor throughout the hit expansion and drug discovery campaign. Assessment of the 4-substituted indole compounds (R1 = H, compounds 8–14) led to a breakthrough regarding the potency of the compounds. Our molecular modeling predicted that the side chain of Threonine-150 within the p53 Y220C protein would form a hydrogen bond with the ligand. This interaction helped to orient the ligand in the binding pocket of the p53 Y220C mutant protein and enhance other interactions such as hydrophobic and van der Waals interactions. […] With the nitrogen atom in place, various polar groups were assessed, and it was determined that basic nitrogen, such as that in the piperidine ring, was preferred for maintaining the potency of the compound (R2 = S5). Many substituents can be tolerated for the aromatic ring occupying the subsite.

[6] = female, CD-1, mouse, in vivo, po, 50 mg/kg
Protocol: as §1, §2, §3, §4, §5

[7] = system: NUGC-3 tumor xenografts; experiment: NUGC-3 tumor xenograft efficacy in nude mice; format: in vivo, mouse; settings: for inhibition of tumor growth: oral, daily
Protocol: Compound 26 (rezatapopt; PC14586), which had the most favorable plasma exposure, was evaluated for its ability to inhibit the growth of NUGC-3 tumor xenografts in nude mice.
Study of C ompound 26 in NUGC-3 Xenograft
Female Balb/c nude mice, aged 4 to 6 weeks, were obtained from Envigo (Madison, WI). All mice were housed at the PMV Pharmaceuticals Vivarium. Mouse care and experimental procedures adhered to institutional guidelines for ethical use, with all research protocols approved by the Institutional Animal Care and Use Committees of PMV Pharmaceuticals. The mice were maintained at ambient temperatures of 68–72 °F, with 30–70% humidity, and a 12 -hour dark/light cycle.
NUGC-3 cells were resuspended at a concentration of 1×10^7 viable cells/mL in a 50:50 mixture of phosphate-buffered saline and Matrigel Matrix (Corning). Subsequently, 100 µL of the suspension was injected subcutaneously into the dorsal flankof the mice . Mice were selected and randomized into treatment groups based on tumor size.

[8] = Toxicological studies; settings: result in words
[9] = system: TP53 Y220C mutant solid tumors; set-up: method as in doi:10.1158/1535-7163.TARG-23-LB_A25; settings: cited from earlier work
[10] = Table 2, concentration required to increase DNA binding by 1.5-fold
[11] = Table 1, concentration required to increase DNA binding by 1.5-fold
[12] = Table 3, concentration required to increase DNA binding by 1.5-fold

SC150 [1, 10]	IC50 ([2]; Table 2)	IC50 ([2]; Table 3)	Mouse PK Exposure AUC0-last ([4]; Table 2, PO)	Mouse PK Exposure Cmax ([4]; Table 2, PO)	SC150 [1, 12]	Mouse PK Exposure AUC0-last ([4]; Table 3, PO)	Mouse PK Exposure Cmax ([4]; Table 3, PO)	Structure (SMILES)	other results
8 nM	0.3 µM	0.325 µM	12567 ng·h/mL	2103 ng/mL				COc1cc(S(C)(=O)=O)ccc1NCC#Cc1cc2c(N[C@@H]3CCN(C)C[C@@H]3F)cccc2n1CC(F)(F)F [Compound 22, N-[(3S,4R)-3-fluoro-1-methyl-4-piperidyl]-2-[3-(2-methoxy-4-methylsulfonyl-anilino)prop-1-ynyl]-1-(2,2,2-trifluoroethyl)indol-4-amine]	fold increased potency compared with compound 13 ([2]; MTT assay, vs compound 13): approximately 7 fold; Papp [3]: 19.9 ×10⁻⁶ cm/s
20 nM	2.3 µM		23233 ng·h/mL	2353 ng/mL				COc1cc(S(C)(=O)=O)ccc1NCC#Cc1cc2c(N[C@H]3CCN(C)C[C@H]3F)cccc2n1CC(F)(F)F [Compound 21, N-[(3R,4S)-3-fluoro-1-methyl-4-piperidyl]-2-[3-(2-methoxy-4-methylsulfonyl-anilino)prop-1-ynyl]-1-(2,2,2-trifluoroethyl)indol-4-amine]	
		0.261 µM			9 nM	8066 ng·h/mL	1310 ng/mL	COc1cc(S(N)(=O)=O)ccc1NCC#Cc1cc2c(N[C@@H]3CCN(C)C[C@@H]3F)cccc2n1CC(F)(F)F [Compound 23, 4-((3-(4-(((3S,4R)-3-fluoro-1-methylpiperidin-4-yl)amino)-1-(2,2,2-trifluoroethyl)-1H-indol-2-yl)prop-2-yn-1-yl)amino)-3-methoxybenzenesulfonamide]	

Second part, the molecule before the results:

Structure (SMILES)	SC150 [1, 10]	IC50 ([2]; Table 2)	IC50 ([2]; Table 3)	Mouse PK Exposure AUC0-last ([4]; Table 2, PO)	Mouse PK Exposure Cmax ([4]; Table 2, PO)	SC150 [1, 12]	Mouse PK Exposure AUC0-last ([4]; Table 3, PO)	Mouse PK Exposure Cmax ([4]; Table 3, PO)	other results
CCn1c(C#CCNc2ccccc2)cc2cc(CNC)ccc21 [Compound 1, N-[3-[1-ethyl-5-(methylaminomethyl)indol-2-yl]prop-2-ynyl]aniline]									SC150 ([1]; Figure 1, enhancement of DNA binding): 13600 nM; SC150 [1, 11]: 13600 nM; half-life [5]: 4 min
COc1cc(C(=O)N2CC3(COC3)C2)ccc1NCC#Cc1cc2c(N[C@@H]3CCN(C)C[C@@H]3F)cccc2n1CC(F)(F)F [Compound 28, [4-[3-[4-[[(3S,4R)-3-fluoro-1-methyl-4-piperidyl]amino]-1-(2,2,2-trifluoroethyl)indol-2-yl]prop-2-ynyl-amino]-3-methoxy-phenyl]-(2-oxa-6-azaspiro[3.3]heptan-6-yl)methanone]			0.457 µM			7 nM			Mouse PK Exposure AUC0-last [6]: 15328 ng·h/mL; Mouse PK Exposure Cmax [6]: 2747 ng/mL
CNC(=O)c1ccc(NCC#Cc2cc3c(N[C@@H]4CCN(C)C[C@@H]4F)cccc3n2CC(F)(F)F)c(OC)c1 [Compound 26]			0.504 µM			9 nM	163342 ng·h/mL	16600 ng/mL	tumor regression ([7]; 100 mg/kg, nude mice): 80%; effect on established human tumor xenografts harboring TP53 Y220C ([7]; mouse models, well-tolerated doses, result in words): tumor inhibition and regression; inhibition of tumor growth ([7]; 25 mg/kg, nude mice): 33%; inhibition of tumor growth ([7]; 50 mg/kg, nude mice): 71%; safety profile in toxicological studies [8]: favorable safety profile; clinical efficacy in Phase 1 clinical trials ([9]; heavily pretreated patients, solid tumors harboring TP53 Y220C, listed as rezatapopt): single-agent clinical efficacy was achieved; safety profile in Phase 1 clinical trials ([9]; within the efficacious dose range): favorable safety profile
COc1cc(C(=O)NCC(O)CO)ccc1NCC#Cc1cc2c(N[C@@H]3CCN(C)C[C@@H]3F)cccc2n1CC(F)(F)F (stereo partly drawn) [Compound 29, N-(2,3-dihydroxypropyl)-4-[3-[4-[[(3S,4R)-3-fluoro-1-methyl-4-piperidyl]amino]-1-(2,2,2-trifluoroethyl)indol-2-yl]prop-2-ynylamino]-3-methoxy-benzamide]			0.574 µM			8 nM	117 ng·h/mL	54 ng/mL	
COc1cc(C(=O)O)ccc1NCC#Cc1cc2c(N[C@@H]3CCN(C)C[C@@H]3F)cccc2n1CC(F)(F)F [Compound 24, 4-((3-(4-(((3S,4R)-3-fluoro-1-methylpiperidin-4-yl)amino)-1-(2,2,2-trifluoroethyl)-1H-indol-2-yl)prop-2-yn-1-yl)amino)-3-methoxybenzoic acid]			0.99 µM			11 nM	57882 ng·h/mL	27700 ng/mL	tumor growth inhibition ([7]; 150 mg/kg, same xenograft model): 54%
COc1cc(S(C)(=O)=O)ccc1NCC#Cc1cc2c(NC3CCN(C)CC3)cccc2n1CC(F)(F)F [Compound 13]	23 nM	2.1 µM		3545 ng·h/mL	903 ng/mL				SC150 [1, 11]: 23 nM; Papp [3]: 11.8 ×10⁻⁶ cm/s
